{"source": "patent US20140315876A1", "about": "“BETA-LACTAMASE INHIBITORS” (priority 2013, published 2014)", "key": {"[1]": {"tested_on": "bacterial strains that express the class D cephalosporinase OXA-15", "assay": "Synergy MIC / standard BLI potentiation MIC assay, strains expressing OXA-15", "format": "cell-based, E. coli", "details": "in the presence of a β-lactam; comparator Avibactam (comparator compound CCC)", "description": "(§1) The experimental protocol was performed according to Clinical and Laboratory Standards Institute (CLSI) guidelines with modifications as described below (CLSI guidelines can be derived from the CLSI document M07-A9 published in January 2012: “Methods for Dilution Antimicrobial Susceptibility Tests for Bacteria That Grow Aerobically; Approved Standard-Ninth Edition”).\n(§2) To prepare for MIC testing, frozen glycerol stocks of clinical isolates (Klebsiella pneumoniae, Eschericia coli, Enterobacter spp, Citrobacter spp, or Pseudomonas aeruginosa) were used to streak for isolated colonies on rich, non-selective, tryptic soy agar containing 5% sheep's blood (TSAB). Frozen glycerol stocks of laboratory engineered, isogenic E. coli strains, which contain cloned β-lactamase expressing plasmids were used to streak for isolated colonies on rich, selective LB agar supplemented with 25 μg/mL tetracycline to maintain the plasmid. All strains were incubated at 37° C. for 18-24 hrs.\n(§3) On the day of testing, primary cultures were started by scraping off 5-10 colonies from the TSAB plates containing clinical strains or the tetracycline supplemented LB plates containing engineered strains. The clinical strain material was suspended in ˜5 mL of cation adjusted Mueller Hinton Broth (CAMHB) in 14 mL culture tubes. The engineered strain material was suspended in CAMHB (supplemented with 25 μg/mL tetracycline) in 14 mL culture tubes. All strains were incubated at 37° C. with aeration (200 rpm) for ˜2 hrs until the optical density at 600 nm (OD600) was ≧0.1.\n(§4) The two compound components of the assay were each diluted in CAMHB and added to the 96-well broth microdilution assay plates. 50 μL of the β-lactam was added to each well of the assay plate in 2-fold dilutions with final concentrations ranging from 128 to 0.13 μg/mL. 25 μL of the BLI compound was added to all wells in the broth microdilution plates at a final concentration of 4 μg/mL. Inoculum cultures were prepared by standardizing the primary cultures to OD600=0.1 and then adding 20 μL of the adjusted primary culture per 1 mL CAMHB for clinical strains or CAMHB (supplemented with tetracycline at 100 μg/mL) for engineered strains, so that the final inoculum density was ˜10^5 colony forming units per milliliter. Diluted inoculum cultures were used to inoculate 25 μL per well in 96-well broth microdilution assay plates. The final volume of each well was 100 μL and contained a β-lactam at different concentrations, a BLI compound at 4 μg/mL concentration, the bacterial culture at an OD600 of approximately 0.001 and when necessary tetracycline at 25 μg/mL.\n(§5) Plates were incubated for 18-20 hours at 37° C. with aeration (200 rpm). Following incubation, growth was confirmed visually placing plates over a viewing apparatus (stand with a mirror underneath) and then OD600 was measured using a SpectraMax 340PC384 plate reader (Molecular Devices, Sunnyvale, Calif.). Growth was defined as turbidity that could be detected with the naked eye or achieving minimum OD600 of 0.1. MIC values were defined as the lowest concentration producing no visible turbidity.\n(§6) The synergy MIC (sMIC) assay determines the concentration of the BLI required to potentiate the activity of a fixed concentration of a β-lactam antibiotic against β-lactamase producing bacterial strains. The experimental protocol was performed according to Clinical and Laboratory Standards Institute (CLSI) guidelines with modifications as described below (CLSI guidelines can be derived from the CLSI document M07-A9 published in January 2012: “Methods for Dilution Antimicrobial Susceptibility Tests for Bacteria That Grow Aerobically; Approved Standard-Ninth Edition”). […]"}, "[2]": {"tested_on": "bacterial strains that express KPC β-lactamases", "assay": "Synergy MIC / standard BLI potentiation MIC assay, strains expressing KPC β-lactamases", "format": "cell-based", "details": "more active for at least one KPC strain and/or better spectrum of activity than Avibactam; in the presence of a β-lactam", "description": "as §1, §2, §3, §4, §5, §6"}}, "note": "Structures can show the parent of a compound that is named as a salt.", "data": [{"smiles": "O=C1N2C[C@@H](CC[C@H]2c2nnc(C3CCNC3)o2)N1OS(=O)(=O)O", "note": "(stereo partly drawn) [Compound 710, (2S,5R)-7-oxo-2-(5-(pyrrolidin-3-yl)-1,3,4-oxadiazol-2-yl)-1,6-diazabicyclo[3.2.1]octan-6-yl hydrogen sulfate]", "values": [{"measurement": "activity against bacterial strains that express the class D cephalosporinase OXA-15, compared with Avibactam", "setting": "[1]", "result": "more active than Avibactam"}, {"measurement": "activity and/or spectrum of activity against bacterial strains that express KPC β-lactamases, compared with Avibactam", "setting": "[2]", "result": "more active than Avibactam"}]}, {"smiles": "O=C1N2C[C@@H](CC[C@H]2c2nnc(C3CCNCC3)o2)N1OS(=O)(=O)O", "note": "[Compound 711, (2S,5R)-7-oxo-2-(5-(piperidin-4-yl)-1,3,4-oxadiazol-2-yl)-1,6-diazabicyclo[3.2.1]octan-6-yl hydrogen sulfate]", "values": [{"measurement": "activity against bacterial strains that express the class D cephalosporinase OXA-15, compared with Avibactam", "setting": "[1]", "result": "more active than Avibactam"}, {"measurement": "activity and/or spectrum of activity against bacterial strains that express KPC β-lactamases, compared with Avibactam", "setting": "[2]", "result": "more active than Avibactam"}]}, {"smiles": "NCCCc1nnc([C@@H]2CC[C@@H]3CN2C(=O)N3OS(=O)(=O)O)o1", "note": "[Compound 720, (2S,5R)-2-(5-(3-aminopropyl)-1,3,4-oxadiazol-2-yl)-7-oxo-1,6-diazabicyclo[3.2.1]octan-6-yl hydrogen sulfate]", "values": [{"measurement": "activity against bacterial strains that express the class D cephalosporinase OXA-15, compared with Avibactam", "setting": "[1]", "result": "more active than Avibactam"}, {"measurement": "activity and/or spectrum of activity against bacterial strains that express KPC β-lactamases, compared with Avibactam", "setting": "[2]", "result": "more active than Avibactam"}]}, {"smiles": "N=C(N)NCc1nnc([C@@H]2CC[C@@H]3CN2C(=O)N3OS(=O)(=O)O)s1", "note": "[Compound 721, (2S,5R)-2-(5-(guanidinomethyl)-1,3,4-thiadiazol-2-yl)-7-oxo-1,6-diazabicyclo[3.2.1]octan-6-yl hydrogen sulfate]", "values": [{"measurement": "activity against bacterial strains that express the class D cephalosporinase OXA-15, compared with Avibactam", "setting": "[1]", "result": "more active than Avibactam"}, {"measurement": "activity and/or spectrum of activity against bacterial strains that express KPC β-lactamases, compared with Avibactam", "setting": "[2]", "result": "more active than Avibactam"}]}, {"smiles": "CNCCc1nnc([C@@H]2CC[C@@H]3CN2C(=O)N3OS(=O)(=O)O)o1", "note": "[Compound 722, (2S,5R)-2-(5-(2-(methylamino)ethyl)-1,3,4-oxadiazol-2-yl)-7-oxo-1,6-diazabicyclo[3.2.1]octan-6-yl hydrogen sulfate]", "values": [{"measurement": "activity against bacterial strains that express the class D cephalosporinase OXA-15, compared with Avibactam", "setting": "[1]", "result": "more active than Avibactam"}, {"measurement": "activity and/or spectrum of activity against bacterial strains that express KPC β-lactamases, compared with Avibactam", "setting": "[2]", "result": "more active than Avibactam"}]}, {"smiles": "N=C(N)NCC1(c2nnc([C@@H]3CC[C@@H]4CN3C(=O)N4OS(=O)(=O)O)o2)CC1", "note": "[Compound 723, (2S,5R)-2-(5-(1-(guanidinomethyl)cyclopropyl)-1,3,4-oxadiazol-2-yl)-7-oxo-1,6-diazabicyclo[3.2.1]octan-6-yl hydrogen sulfate]", "values": [{"measurement": "activity against bacterial strains that express the class D cephalosporinase OXA-15, compared with Avibactam", "setting": "[1]", "result": "more active than Avibactam"}, {"measurement": "activity and/or spectrum of activity against bacterial strains that express KPC β-lactamases, compared with Avibactam", "setting": "[2]", "result": "more active than Avibactam"}]}, {"smiles": "NC1(Cc2nnc([C@@H]3CC[C@@H]4CN3C(=O)N4OS(=O)(=O)O)o2)CC1", "note": "[Compound 724, (2S,5R)-2-(5-((1-aminocyclopropyl)methyl)-1,3,4-oxadiazol-2-yl)-7-oxo-1,6-diazabicyclo[3.2.1]octan-6-yl hydrogen sulfate]", "values": [{"measurement": "activity against bacterial strains that express the class D cephalosporinase OXA-15, compared with Avibactam", "setting": "[1]", "result": "more active than Avibactam"}, {"measurement": "activity and/or spectrum of activity against bacterial strains that express KPC β-lactamases, compared with Avibactam", "setting": "[2]", "result": "more active than Avibactam"}]}, {"smiles": "O=C1N2C[C@@H](CC[C@H]2c2nnc(CNC3CNC3)o2)N1OS(=O)(=O)O", "note": "[Compound 726, (2S,5R)-2-(5-((azetidin-3-ylamino)methyl)-1,3,4-oxadiazol-2-yl)-7-oxo-1,6-diazabicyclo[3.2.1]octan-6-yl hydrogen sulfate]", "values": [{"measurement": "activity against bacterial strains that express the class D cephalosporinase OXA-15, compared with Avibactam", "setting": "[1]", "result": "more active than Avibactam"}, {"measurement": "activity and/or spectrum of activity against bacterial strains that express KPC β-lactamases, compared with Avibactam", "setting": "[2]", "result": "more active than Avibactam"}]}, {"smiles": "N[C@H]1C[C@H](c2nnc([C@@H]3CC[C@@H]4CN3C(=O)N4OS(=O)(=O)O)o2)C1", "note": "[Compound 727, (2S,5R)-2-(5-((1r,3S)-3-aminocyclobutyl)-1,3,4-oxadiazol-2-yl)-7-oxo-1,6-diazabicyclo[3.2.1]octan-6-yl hydrogen sulfate]", "values": [{"measurement": "activity against bacterial strains that express the class D cephalosporinase OXA-15, compared with Avibactam", "setting": "[1]", "result": "more active than Avibactam"}, {"measurement": "activity and/or spectrum of activity against bacterial strains that express KPC β-lactamases, compared with Avibactam", "setting": "[2]", "result": "more active than Avibactam"}]}, {"smiles": "N[C@H]1C[C@@H](Cc2nnc([C@@H]3CC[C@@H]4CN3C(=O)N4OS(=O)(=O)O)o2)C1", "note": "[Compound 728, (2S,5R)-2-(5-(((1s,3R)-3-aminocyclobutyl)methyl)-1,3,4-oxadiazol-2-yl)-7-oxo-1,6-diazabicyclo[3.2.1]octan-6-yl hydrogen sulfate]", "values": [{"measurement": "activity against bacterial strains that express the class D cephalosporinase OXA-15, compared with Avibactam", "setting": "[1]", "result": "more active than Avibactam"}, {"measurement": "activity and/or spectrum of activity against bacterial strains that express KPC β-lactamases, compared with Avibactam", "setting": "[2]", "result": "more active than Avibactam"}]}, {"smiles": "N[C@@H]1CC[C@H](c2nnc([C@@H]3CC[C@@H]4CN3C(=O)N4OS(=O)(=O)O)o2)C1", "note": "[Compound 729, (2S,5R)-2-(5-((1S,3R)-3-aminocyclopentyl)-1,3,4-oxadiazol-2-yl)-7-oxo-1,6-diazabicyclo[3.2.1]octan-6-yl hydrogen sulfate]", "values": [{"measurement": "activity against bacterial strains that express the class D cephalosporinase OXA-15, compared with Avibactam", "setting": "[1]", "result": "more active than Avibactam"}, {"measurement": "activity and/or spectrum of activity against bacterial strains that express KPC β-lactamases, compared with Avibactam", "setting": "[2]", "result": "more active than Avibactam"}]}, {"smiles": "N=C(N)NCC(O)Cc1nnc([C@@H]2CC[C@@H]3CN2C(=O)N3OS(=O)(=O)O)o1", "note": "(stereo partly drawn) [Compound 730, (2S,5R)-2-(5-(3-guanidino-2-hydroxypropyl)-1,3,4-oxadiazol-2-yl)-7-oxo-1,6-diazabicyclo[3.2.1]octan-6-yl hydrogen sulfate]", "values": [{"measurement": "activity against bacterial strains that express the class D cephalosporinase OXA-15, compared with Avibactam", "setting": "[1]", "result": "more active than Avibactam"}, {"measurement": "activity and/or spectrum of activity against bacterial strains that express KPC β-lactamases, compared with Avibactam", "setting": "[2]", "result": "more active than Avibactam"}]}, {"smiles": "N=C(N)NC[C@@H](O)c1nnc([C@@H]2CC[C@@H]3CN2C(=O)N3OS(=O)(=O)O)o1", "note": "[Compound 731, (2S,5R)-2-(5-((R)-2-guanidino-1-hydroxyethyl)-1,3,4-oxadiazol-2-yl)-7-oxo-1,6-diazabicyclo[3.2.1]octan-6-yl hydrogen sulfate]", "values": [{"measurement": "activity against bacterial strains that express the class D cephalosporinase OXA-15, compared with Avibactam", "setting": "[1]", "result": "more active than Avibactam"}, {"measurement": "activity and/or spectrum of activity against bacterial strains that express KPC β-lactamases, compared with Avibactam", "setting": "[2]", "result": "more active than Avibactam"}]}, {"smiles": "N=C(N)NC[C@H](O)c1nnc([C@@H]2CC[C@@H]3CN2C(=O)N3OS(=O)(=O)O)o1", "note": "[Compound 732, (2S,5R)-2-(5-((S)-2-guanidino-1-hydroxyethyl)-1,3,4-oxadiazol-2-yl)-7-oxo-1,6-diazabicyclo[3.2.1]octan-6-yl hydrogen sulfate]", "values": [{"measurement": "activity against bacterial strains that express the class D cephalosporinase OXA-15, compared with Avibactam", "setting": "[1]", "result": "more active than Avibactam"}, {"measurement": "activity and/or spectrum of activity against bacterial strains that express KPC β-lactamases, compared with Avibactam", "setting": "[2]", "result": "more active than Avibactam"}]}, {"smiles": "CNCCCc1nnc([C@@H]2CC[C@@H]3CN2C(=O)N3OS(=O)(=O)O)o1", "note": "[Compound 734, (2S,5R)-2-(5-(3-(methylamino)propyl)-1,3,4-oxadiazol-2-yl)-7-oxo-1,6-diazabicyclo[3.2.1]octan-6-yl hydrogen sulfate]", "values": [{"measurement": "activity against bacterial strains that express the class D cephalosporinase OXA-15, compared with Avibactam", "setting": "[1]", "result": "more active than Avibactam"}, {"measurement": "activity and/or spectrum of activity against bacterial strains that express KPC β-lactamases, compared with Avibactam", "setting": "[2]", "result": "more active than Avibactam"}]}]}
